Data on 25 compounds can be found in ChEMBL document CHEMBL5291721, “A preclinical secondary pharmacology resource illuminates target-adverse drug reaction associations of marketed drugs” (Nat Commun, 2023).

Test [1] deals with Gamma-aminobutyric acid receptor subunit alpha-1/alpha-2/beta-2/gamma-2 (Homo sapiens, UniProt P14867+P18507+P47869+P47870). The format is functional, cell-based.
In test [2] the target is T1, Muscarinic acetylcholine receptor M2 (Homo sapiens, UniProt P08172).
T1 sequence (P08172 whole entry): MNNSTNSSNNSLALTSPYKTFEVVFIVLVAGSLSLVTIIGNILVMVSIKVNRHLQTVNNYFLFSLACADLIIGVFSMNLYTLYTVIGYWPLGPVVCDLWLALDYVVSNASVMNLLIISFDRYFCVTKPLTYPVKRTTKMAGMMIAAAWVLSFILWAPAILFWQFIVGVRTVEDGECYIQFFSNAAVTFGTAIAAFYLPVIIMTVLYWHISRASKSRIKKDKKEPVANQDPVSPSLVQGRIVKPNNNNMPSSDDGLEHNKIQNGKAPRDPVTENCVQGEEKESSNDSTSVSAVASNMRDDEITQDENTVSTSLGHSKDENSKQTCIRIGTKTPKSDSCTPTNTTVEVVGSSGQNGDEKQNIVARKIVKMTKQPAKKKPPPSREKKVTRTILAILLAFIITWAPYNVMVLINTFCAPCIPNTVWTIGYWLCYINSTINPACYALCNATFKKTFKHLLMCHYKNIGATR

The target in test [3] is Beta-1 adrenergic receptor (Homo sapiens, UniProt P08588). The format is functional, cell-based.
Beta-1 adrenergic receptor, sequence (P08588 whole entry): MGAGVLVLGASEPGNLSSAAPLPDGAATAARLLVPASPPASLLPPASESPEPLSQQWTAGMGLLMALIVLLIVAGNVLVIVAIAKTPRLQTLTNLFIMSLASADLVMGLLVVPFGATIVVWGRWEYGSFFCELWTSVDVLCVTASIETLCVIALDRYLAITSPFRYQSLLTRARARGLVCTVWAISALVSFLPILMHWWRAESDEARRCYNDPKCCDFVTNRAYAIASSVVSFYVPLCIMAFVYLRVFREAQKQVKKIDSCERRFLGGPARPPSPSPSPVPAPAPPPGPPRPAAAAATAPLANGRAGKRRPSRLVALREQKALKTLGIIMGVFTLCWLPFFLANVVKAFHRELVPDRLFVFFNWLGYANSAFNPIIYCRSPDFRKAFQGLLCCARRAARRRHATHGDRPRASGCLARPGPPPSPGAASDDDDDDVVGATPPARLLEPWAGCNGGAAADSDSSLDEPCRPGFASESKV
For test [4], the target named is D(1A) dopamine receptor (Homo sapiens, UniProt P21728).
D(1A) dopamine receptor, sequence (P21728 whole entry): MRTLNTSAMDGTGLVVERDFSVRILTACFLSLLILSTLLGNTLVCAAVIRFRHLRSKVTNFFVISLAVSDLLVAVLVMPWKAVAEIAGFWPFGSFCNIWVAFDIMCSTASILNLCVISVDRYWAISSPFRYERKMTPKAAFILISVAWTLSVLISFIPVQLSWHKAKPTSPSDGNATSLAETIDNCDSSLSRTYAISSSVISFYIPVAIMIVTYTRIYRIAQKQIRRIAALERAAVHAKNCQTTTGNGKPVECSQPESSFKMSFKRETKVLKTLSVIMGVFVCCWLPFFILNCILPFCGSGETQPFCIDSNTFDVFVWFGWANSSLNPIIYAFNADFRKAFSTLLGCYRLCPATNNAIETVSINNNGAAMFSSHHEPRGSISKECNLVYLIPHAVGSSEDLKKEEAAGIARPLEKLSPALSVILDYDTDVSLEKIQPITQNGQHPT
Test [5] deals with T2, Androgen receptor (Rattus norvegicus, UniProt P15207).
T2 sequence (P15207 whole entry): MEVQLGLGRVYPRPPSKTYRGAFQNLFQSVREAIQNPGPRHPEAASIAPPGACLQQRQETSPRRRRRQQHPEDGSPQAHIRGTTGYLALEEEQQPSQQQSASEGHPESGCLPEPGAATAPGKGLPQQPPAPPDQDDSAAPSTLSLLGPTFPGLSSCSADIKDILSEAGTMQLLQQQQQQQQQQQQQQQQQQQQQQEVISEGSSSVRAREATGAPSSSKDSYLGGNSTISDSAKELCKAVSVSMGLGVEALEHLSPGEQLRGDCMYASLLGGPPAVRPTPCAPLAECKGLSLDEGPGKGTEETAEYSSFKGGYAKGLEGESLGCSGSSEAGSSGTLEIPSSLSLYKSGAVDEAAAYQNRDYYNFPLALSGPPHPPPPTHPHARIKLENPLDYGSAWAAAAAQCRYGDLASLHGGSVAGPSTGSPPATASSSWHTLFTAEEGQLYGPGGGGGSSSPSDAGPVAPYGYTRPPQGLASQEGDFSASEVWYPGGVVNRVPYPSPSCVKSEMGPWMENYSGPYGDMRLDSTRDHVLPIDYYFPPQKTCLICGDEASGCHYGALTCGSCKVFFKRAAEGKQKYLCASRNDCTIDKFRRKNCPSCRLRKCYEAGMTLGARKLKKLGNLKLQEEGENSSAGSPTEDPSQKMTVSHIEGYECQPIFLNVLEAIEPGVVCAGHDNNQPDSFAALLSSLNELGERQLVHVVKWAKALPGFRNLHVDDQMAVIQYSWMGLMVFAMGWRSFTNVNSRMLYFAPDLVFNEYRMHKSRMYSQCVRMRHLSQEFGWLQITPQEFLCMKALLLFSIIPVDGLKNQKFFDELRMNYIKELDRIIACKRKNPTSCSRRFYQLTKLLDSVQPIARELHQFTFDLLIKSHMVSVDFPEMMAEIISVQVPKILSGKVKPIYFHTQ

The target in test [6] is T3, Progesterone receptor (Homo sapiens, UniProt P06401).
T3 sequence (P06401 whole entry): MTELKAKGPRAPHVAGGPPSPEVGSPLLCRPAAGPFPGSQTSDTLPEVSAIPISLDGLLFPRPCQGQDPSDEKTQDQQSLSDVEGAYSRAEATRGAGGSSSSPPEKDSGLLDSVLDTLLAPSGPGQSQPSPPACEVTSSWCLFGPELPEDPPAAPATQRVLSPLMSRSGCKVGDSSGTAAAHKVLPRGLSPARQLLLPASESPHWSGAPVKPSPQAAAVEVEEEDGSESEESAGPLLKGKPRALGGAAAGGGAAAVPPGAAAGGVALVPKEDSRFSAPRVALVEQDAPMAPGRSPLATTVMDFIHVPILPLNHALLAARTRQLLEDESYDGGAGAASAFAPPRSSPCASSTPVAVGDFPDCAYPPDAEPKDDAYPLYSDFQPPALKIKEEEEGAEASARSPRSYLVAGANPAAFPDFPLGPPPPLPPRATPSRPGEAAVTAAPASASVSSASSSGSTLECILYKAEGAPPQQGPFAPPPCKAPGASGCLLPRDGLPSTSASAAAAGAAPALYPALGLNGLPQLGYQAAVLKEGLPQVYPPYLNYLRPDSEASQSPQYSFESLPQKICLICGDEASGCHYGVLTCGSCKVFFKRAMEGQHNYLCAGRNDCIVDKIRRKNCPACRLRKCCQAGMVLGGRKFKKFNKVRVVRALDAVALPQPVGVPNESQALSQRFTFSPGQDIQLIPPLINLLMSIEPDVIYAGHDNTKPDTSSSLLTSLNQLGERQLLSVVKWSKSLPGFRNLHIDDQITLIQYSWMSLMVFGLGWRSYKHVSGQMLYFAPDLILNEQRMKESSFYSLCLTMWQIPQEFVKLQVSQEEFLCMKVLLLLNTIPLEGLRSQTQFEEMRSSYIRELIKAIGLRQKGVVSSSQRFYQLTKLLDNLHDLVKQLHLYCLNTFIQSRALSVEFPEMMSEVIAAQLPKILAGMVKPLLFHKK

The target in test [7] is Beta-3 adrenergic receptor (Homo sapiens, UniProt P13945).
Beta-3 adrenergic receptor, sequence (P13945 whole entry): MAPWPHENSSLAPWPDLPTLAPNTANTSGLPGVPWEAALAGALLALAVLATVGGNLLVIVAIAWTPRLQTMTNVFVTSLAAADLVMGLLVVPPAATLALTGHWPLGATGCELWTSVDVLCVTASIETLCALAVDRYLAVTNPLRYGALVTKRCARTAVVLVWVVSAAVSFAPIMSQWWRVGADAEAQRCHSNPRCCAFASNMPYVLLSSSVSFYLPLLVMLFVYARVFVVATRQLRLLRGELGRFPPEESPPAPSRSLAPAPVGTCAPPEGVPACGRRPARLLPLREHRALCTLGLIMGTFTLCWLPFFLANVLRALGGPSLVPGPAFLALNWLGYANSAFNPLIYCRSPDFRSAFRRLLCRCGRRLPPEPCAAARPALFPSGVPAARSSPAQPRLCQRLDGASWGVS
Test [8] has as its target T2, Androgen receptor. The format is functional.
Test [9] deals with T2, Androgen receptor. Type of test: functional. The source holds these as a separate data set.
Also: assay procedure not described here.

Gamma-aminobutyric acid receptor subunit alpha-1/alpha-2/beta-2/gamma-2, sequence (P14867 whole entry): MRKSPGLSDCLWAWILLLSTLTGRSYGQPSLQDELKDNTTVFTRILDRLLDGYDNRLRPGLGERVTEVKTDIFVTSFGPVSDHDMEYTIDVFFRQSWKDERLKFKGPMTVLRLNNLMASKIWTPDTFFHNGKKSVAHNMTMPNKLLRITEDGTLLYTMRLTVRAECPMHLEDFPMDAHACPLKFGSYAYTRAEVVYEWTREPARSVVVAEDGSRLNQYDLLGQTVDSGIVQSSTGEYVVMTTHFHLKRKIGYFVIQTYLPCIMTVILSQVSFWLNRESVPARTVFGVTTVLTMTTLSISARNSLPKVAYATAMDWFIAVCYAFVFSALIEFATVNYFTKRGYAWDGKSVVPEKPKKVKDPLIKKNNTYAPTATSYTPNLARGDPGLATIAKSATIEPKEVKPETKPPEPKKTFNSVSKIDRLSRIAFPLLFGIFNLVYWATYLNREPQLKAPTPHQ
Gamma-aminobutyric acid receptor subunit alpha-1/alpha-2/beta-2/gamma-2, sequence (P47870 whole entry): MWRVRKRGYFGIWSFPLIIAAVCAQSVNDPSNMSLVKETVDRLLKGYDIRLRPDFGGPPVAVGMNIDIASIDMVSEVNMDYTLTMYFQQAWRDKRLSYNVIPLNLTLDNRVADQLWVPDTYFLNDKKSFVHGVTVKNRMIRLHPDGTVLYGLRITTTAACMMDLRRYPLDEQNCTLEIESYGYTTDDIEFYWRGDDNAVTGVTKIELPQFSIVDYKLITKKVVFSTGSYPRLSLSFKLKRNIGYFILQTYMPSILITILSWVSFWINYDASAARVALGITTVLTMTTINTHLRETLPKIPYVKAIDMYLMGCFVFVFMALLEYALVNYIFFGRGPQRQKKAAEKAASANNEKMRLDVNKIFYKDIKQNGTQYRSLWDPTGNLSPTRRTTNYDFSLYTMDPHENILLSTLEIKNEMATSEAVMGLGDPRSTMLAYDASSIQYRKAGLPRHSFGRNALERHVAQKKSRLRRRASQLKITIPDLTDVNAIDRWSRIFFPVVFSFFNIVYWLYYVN
Gamma-aminobutyric acid receptor subunit alpha-1/alpha-2/beta-2/gamma-2, sequence (P18507 whole entry): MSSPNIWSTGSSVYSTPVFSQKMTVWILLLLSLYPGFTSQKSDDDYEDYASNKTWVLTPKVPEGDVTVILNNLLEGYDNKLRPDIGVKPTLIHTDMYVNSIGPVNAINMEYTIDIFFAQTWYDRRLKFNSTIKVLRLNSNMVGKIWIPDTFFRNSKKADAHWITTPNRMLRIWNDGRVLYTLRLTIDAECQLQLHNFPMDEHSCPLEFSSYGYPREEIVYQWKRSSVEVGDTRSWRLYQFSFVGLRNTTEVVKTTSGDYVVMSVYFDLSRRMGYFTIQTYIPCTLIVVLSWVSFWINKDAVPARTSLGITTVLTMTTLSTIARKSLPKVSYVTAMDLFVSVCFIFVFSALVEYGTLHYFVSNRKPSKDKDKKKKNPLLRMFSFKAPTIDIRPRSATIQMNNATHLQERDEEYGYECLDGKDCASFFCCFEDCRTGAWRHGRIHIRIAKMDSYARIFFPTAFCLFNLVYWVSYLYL
Gamma-aminobutyric acid receptor subunit alpha-1/alpha-2/beta-2/gamma-2, sequence (P47869 whole entry): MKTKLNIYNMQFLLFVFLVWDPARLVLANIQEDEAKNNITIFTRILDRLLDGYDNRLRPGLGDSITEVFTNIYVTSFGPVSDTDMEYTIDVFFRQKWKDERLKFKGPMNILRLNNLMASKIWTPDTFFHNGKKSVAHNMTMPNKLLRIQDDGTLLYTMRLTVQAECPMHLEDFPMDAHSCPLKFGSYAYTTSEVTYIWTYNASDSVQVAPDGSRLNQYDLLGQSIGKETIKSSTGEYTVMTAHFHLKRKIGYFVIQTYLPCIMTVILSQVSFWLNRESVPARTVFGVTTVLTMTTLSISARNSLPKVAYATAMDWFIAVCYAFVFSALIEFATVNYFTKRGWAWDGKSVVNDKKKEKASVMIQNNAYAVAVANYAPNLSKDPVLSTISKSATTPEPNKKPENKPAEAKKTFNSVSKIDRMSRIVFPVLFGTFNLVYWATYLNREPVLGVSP

Regarding `NC(=O)CN1CCCC1=O`, the concentration at half-maximal activity (AC50) (commonly the midpoint of the concentration-response curve, whichever way the signal moves) in test [1] is above 30 µM.
As for `C[N@+]1(CCF)[C@@H]2CC[C@H]1C[C@@H](OC(=O)C(O)(c1ccccc1)c1ccccc1)C2`, half-maximal activity in test [2] (AC50) was put at 0.2 µM.
Consider `CC(=O)O[C@H](CC(=O)[O-])C[N+](C)(C)C` [ACETYLCARNITINE], for which the AC50 in [3] is above 30 µM.
Take `Cn1c(=O)cc(N2CCC[C@@H](N)C2)n(Cc2ccccc2C#N)c1=O` [ALOGLIPTIN]: the AC50 in test [4] was above 10 µM; in test [5], above 30 µM; in test [2], above 10 µM; in test [6], above 30 µM; in [7], above 30 µM.
In [1], `CCN1CCCC1CNC(=O)c1cc(S(=O)(=O)CC)c(N)cc1OC` (stereo unspecified) [AMISULPRIDE] gave a half-maximal activity concentration (AC50) above 30 µM.
Compound `O=C(O)CCNC(=O)c1ccccc1` [BETAMIPRON] had an AC50 in test [3] above 30 µM.
On to `O=C1CN=C(c2ccccn2)c2cc(Br)ccc2N1` [BROMAZEPAM], for which the concentration at half-maximal activity (AC50) in test [5] was above 10 µM.
Take `Oc1ccc2c(c1)[C@@]13CCCC[C@@]1(O)[C@@H](C2)N(CC1CCC1)CC3` [BUTORPHANOL]: the concentration at half-maximal activity (AC50) in test [1], in test [8] and in [9] was above 30 µM throughout.
Regarding `C=C1/C(=C\C=C2/CCC[C@]3(C)[C@@H]([C@H](C)/C=C/[C@@H](O)C4CC4)CC[C@@H]23)C[C@@H](O)C[C@@H]1O` [CALCIPOTRIENE], the half-maximal activity concentration (AC50) in test [8] was 28 µM; in test [9], above 30 µM.
Take `CCN(CC)C(=O)Nc1ccc(OCC(O)CNC(C)(C)C)c(C(C)=O)c1` (stereo unspecified) [CELIPROLOL]: the half-maximal activity concentration (AC50) in [8], in test [9] and in test [3] was above 30 µM in each case.
In turn, `CC(=O)[C@@]1(O)CC[C@H]2[C@@H]3C=C(Cl)C4=CC(=O)[C@@H]5C[C@@H]5[C@]4(C)[C@H]3CC[C@@]21C` [CYPROTERONE] showed a concentration at half-maximal activity (AC50) in test [4] above 10 µM.
As for `CC(=O)OCC(=O)[C@@]1(O)[C@H](C)C[C@H]2[C@@H]3CCC4=CC(=O)C=C[C@]4(C)[C@@]3(F)[C@@H](O)C[C@@]21C` [DEXAMETHASONE ACETATE], the values for the half-maximal activity concentration (AC50) in [2], in [6] and in test [7] were above 10 µM, above 30 µM and above 30 µM, respectively.
`CCCCCCCCCCCCCCCCCCCCCC(=O)Nc1ccn([C@@H]2O[C@H](CO)[C@@H](O)[C@@H]2O)c(=O)n1` [ENOCITABINE]: the AC50 in test [8] and in [9] was above 30 µM each time.
With `CC(=O)[C@]1(O)Cc2c(O)c3c(c(O)c2[C@@H](O[C@H]2C[C@H](N)[C@H](O)[C@H](C)O2)C1)C(=O)c1ccccc1C3=O` [IDARUBICIN], the AC50 in test [9] came to 17 µM.
Take `Nc1cc(-c2ccncc2)c[nH]c1=O` [INAMRINONE]: the half-maximal activity concentration (AC50) was above 30 µM in test [5] and above 20 µM in [6].
In the case of `O=C(O)c1ccccc1Nc1cc(Cl)ccc1C(=O)O` [LOBENZARIT], the concentration at half-maximal activity (AC50) in test [3] is above 30 µM.
For `COc1cc2c(cc1OC)C(CCc1ccc(Cl)cc1)N(C)CC2` (stereo unspecified) [METHOPHOLINE], the AC50 in test [5] is above 30 µM.
Regarding `Cc1ncc2n1-c1ccc(Cl)cc1C(c1ccccc1F)=NC2` [MIDAZOLAM], the AC50 in test [6] was above 30 µM.
Turning to `COc1ccc(-c2noc(CC(=O)O)c2-c2ccc(OC)cc2)cc1` [MOFEZOLAC], the concentration at half-maximal activity (AC50) in test [8], in test [9] and in test [3] was above 30 µM in each case.
Consider `C#CCOc1ccc(N)cc1C(=O)NCCCC` [PARSALMIDE], for which the concentration at half-maximal activity (AC50) in [8] and in test [9] was above 30 µM throughout.
In the case of `COc1ccc2nc3cc(Cl)ccc3c(Nc3cc(CN4CCCC4)c(O)c(CN4CCCC4)c3)c2n1` [PYRONARIDINE], the AC50 in test [8] was above 10 µM; in [9], above 30 µM.
For `OCc1cc(C(O)CNCCCCCCOCCCCc2ccccc2)ccc1O` (stereo unspecified) [SALMETEROL], in test [4], the AC50 was above 10 µM.
As for `Cn1cnc2c(F)c(Nc3ccc(Br)cc3Cl)c(C(=O)NOCCO)cc21` [SELUMETINIB], the concentration at half-maximal activity (AC50) is above 10 µM in test [4], above 10 µM in [2], above 30 µM in test [6] and above 30 µM in [7].
With `NC1CCN(c2nc3c(cc2F)c(=O)c(C(=O)O)cn3-c2ccc(F)cc2F)C1` (stereo unspecified) [TOSUFLOXACIN], the concentration at half-maximal activity (AC50) in test [8] and in test [9] was above 30 µM in each case.
In turn, `CCC(COC(=O)c1cc(OC)c(OC)c(OC)c1)(c1ccccc1)N(C)C` (stereo unspecified) [TRIMEBUTINE] showed an AC50 in [3] above 30 µM.
